Measured values: EPA's ToxRefDB 2

Experiments:
rat [1] = settings: Prenatal developmental toxicity study, sprague dawley, Inhalation, Whole-Body, dose end: 15 GD
rat [2] = settings: Multigenerational reproductive toxicity study, sprague dawley, Inhalation, Whole-Body, dose end: 2 generation
rat [3] = settings: Multigenerational reproductive toxicity study, Sprague Dawley, Oral, Gavage/Intubation, dose end: 2 generation
rat [4] = settings: Multigenerational reproductive toxicity study, sprague dawley, Oral, Water, dose end: 3 generation
rat [5] = settings: Multigenerational reproductive toxicity study, Oral, Gavage/Intubation, dose end: 2 generation
rat [6] = settings: Prenatal developmental toxicity study; sprague dawley; Oral; Gavage/Intubation; dose end: 15 GD; group: developmental; systemic / in life observation / body weight / fetal weight
rat [7] = settings: Carcinogenicity, fischer, Oral, Feed, dose end: 104 week, group: systemic
mouse [8] = settings: Chronic toxicity, other, Oral, Feed, dose end: 150 week, group: systemic
rat [9] = settings: Chronic toxicity, sprague dawley, Oral, Feed, dose end: 24 month, group: systemic
mouse [10] = settings: Carcinogenicity; b6c3f1; Oral; Feed; dose end: 78 week; group: systemic; systemic / in life observation / body weight / body weight + systemic / pathology microscopic / liver / carcinoma
rat [11] = settings: Carcinogenicity; other; Oral; Feed; dose end: 78 week; group: systemic; systemic / pathology microscopic / thyroid gland / adenoma + systemic / in life observation / clinical signs / abdominogenital staining + …
[12] = group: developmental, systemic / in life observation / body weight / fetal weight
[13] = group: maternal, systemic / in life observation / body weight / body weight + systemic / in life observation / body weight / body weight gain
[14] = group: maternal, systemic / in life observation / body weight / body weight + systemic / in life observation / body weight / body weight gain + systemic / in…
[15] = group: offspring, systemic / in life observation / body weight / offspring (pup) weight gain + systemic / in life observation / body weight / offspring (pup) …
[16] = group: parental, systemic / in life observation / body weight / body weight
[17] = group: reproductive, reproductive / offspring survival early / litter viability other / litter viability + reproductive / reproductive performance / …
[18] = group: offspring, developmental / developmental landmark / vaginal opening / vaginal opening + systemic / clinical chemistry / luteinizing hormone (lh) / …
[19] = group: offspring, systemic / in life observation / clinical signs / swimming time trial
[20] = group: parental, systemic / in life observation / clinical signs / salivation + systemic / organ weight / ovary / absolute + systemic / organ weight / ovary…
[21] = group: reproductive, reproductive / offspring survival early / birth index / live birth index + reproductive / reproductive performance / implantations / …
[22] = group: offspring, systemic / pathology microscopic / liver / nuclear alteration
[23] = group: parental, systemic / pathology microscopic / liver / apoptosis
[24] = group: offspring, developmental / developmental malformation / bone / wavy
[25] = group: reproductive, reproductive / reproductive performance / gestational length / gestational length + reproductive / offspring survival early / dead fetuses…
[26] = systemic / pathology microscopic / parathyroid gland / hyperplasia
[27] = systemic / in life observation / body weight / body weight
[28] = systemic / in life observation / body weight / body weight + systemic / organ weight / liver / absolute + systemic / organ weight / liver / …

`C1CO1` [Ethylene oxide] was tested, and the LEL (rat [1]; [12]) was 50 ppm, the LOAEL (rat [1]; [12]) was 50 ppm and the NEL (rat [1]; [12]) was < 50 ppm. For the same molecule, the NOAEL (rat [1]; [12]) was < 50 ppm, the LEL (rat [1]; [13]) was 125 ppm and the LOAEL (rat [1]; [13]) was 125 ppm. The NEL (rat [1]; [14]) was 50 ppm, the NOAEL (rat [1]; [14]) was 50 ppm and the LEL (rat [2]; [15]) was 33 ppm. It also gave an LOAEL (rat [2]; [15]) of 33 ppm, an NEL (rat [2]; [15]) of 10 ppm and an NOAEL (rat [2]; [15]) of 10 ppm. The LEL (rat [2]; [16]) was 33 ppm, the LOAEL (rat [2]; [16]) was 33 ppm and the NEL (rat [2]; [16]) was 10 ppm. The NOAEL (rat [2]; [16]) was 10 ppm, the LEL (rat [2]; [17]) was 33 ppm and the LOAEL (rat [2]; [17]) was 33 ppm. It also gave an NEL (rat [2]; [17]) of 10 ppm and an NOAEL (rat [2]; [17]) of 10 ppm.

For `CCCCCCCCCc1ccccc1O` [Nonylphenol (mixed)], the LOAEL (rat [3]; [18]) was > 50 mg/kg/day, the NOAEL (rat [3]; [18]) was ≥ 50 mg/kg/day and the LEL (rat [3]; [19]) was 2 mg/kg/day. The NEL (rat [3]; [19]) was < 2 mg/kg/day, the LEL (rat [3]; [20]) was 50 mg/kg/day and the LOAEL (rat [3]; [20]) was > 50 mg/kg/day. For the same molecule, the NEL (rat [3]; [20]) was 10 mg/kg/day, the NOAEL (rat [3]; [20]) was ≥ 50 mg/kg/day and the LEL (rat [3]; [21]) was 50 mg/kg/day. For the same molecule, the LOAEL (rat [3]; [21]) was > 50 mg/kg/day, the NEL (rat [3]; [21]) was 10 mg/kg/day and the NOAEL (rat [3]; [21]) was ≥ 50 mg/kg/day. For the same molecule, the LEL (rat [4]; [22]) was 1.25 mg/kg/day, the LOAEL (rat [4]; [22]) was > 1.25 mg/kg/day and the NEL (rat [4]; [22]) was < 1.25 mg/kg/day. The NOAEL (rat [4]; [22]) was ≥ 1.25 mg/kg/day, the LEL (rat [4]; [23]) was 1.25 mg/kg/day and the LOAEL (rat [4]; [23]) was > 1.25 mg/kg/day. For the same molecule, the NEL (rat [4]; [23]) was < 1.25 mg/kg/day and the NOAEL (rat [4]; [23]) was ≥ 1.25 mg/kg/day.

For `COc1ccc(C(=O)c2c(C)n(CCN3CCOCC3)c3ccccc23)cc1` [Pravadoline], the LEL (rat [5]; [24]) was 300 mg/kg/day, the LOAEL (rat [5]; [24]) was > 300 mg/kg/day and the NEL (rat [5]; [24]) was 100 mg/kg/day. For the same molecule, the NOAEL (rat [5]; [24]) was ≥ 300 mg/kg/day, the NEL (rat [5]; group: reproductive, reproductive / reproductive performance / gestational length / gestational length) was 100 mg/kg/day and the LEL (rat [5]; [25]) was 300 mg/kg/day. For the same molecule, the LOAEL (rat [5]; [25]) was > 300 mg/kg/day and the NOAEL (rat [5]; [25]) was ≥ 300 mg/kg/day.

In the case of `O=c1c(O)c(-c2ccc(O)c(O)c2)oc2cc(O)cc(O)c12` [Quercetin], the LEL (rat [6]) is reported as 200 mg/kg/day, the LOAEL (rat [6]) is reported as > 2000 mg/kg/day and the NEL (rat [6]) is reported as 20 mg/kg/day. The NOAEL (rat [6]) was ≥ 2000 mg/kg/day, the LOAEL (rat [7]; systemic / in life observation / body weight / body weight + systemic / in life observation / body weight / body weight gain + systemic / …) was 1600 mg/kg/day and the NOAEL (rat [7]; systemic / in life observation / body weight / body weight + systemic / organ weight / kidney / relative to body weight + systemic / organ …) was 400 mg/kg/day. The LEL (rat [7]; [26]) was 40 mg/kg/day and the NEL (rat [7]; [26]) was < 40 mg/kg/day.

`CCOC(=O)NC(=S)Nc1ccccc1NC(=S)NC(=O)OCC` [Thiophanate] was tested, and the NEL (mouse [8]; systemic / pathology microscopic / ovary / cyst) was 60 mg/kg/day, the LOAEL (mouse [8]; systemic / pathology microscopic / testes / hypospermatogenesis) was 300 mg/kg/day and the NOAEL (mouse [8]; systemic / pathology microscopic / testes / hypospermatogenesis + systemic / pathology microscopic / liver / fatty change) was 60 mg/kg/day. For the same molecule, the LEL (mouse [8]; systemic / pathology microscopic / testes / hypospermatogenesis + systemic / pathology microscopic / liver / fatty change + systemic / …) was 300 mg/kg/day, the NEL (rat [9]; [27]) was 10 mg/kg/day and the NOAEL (rat [9]; [27]) was 10 mg/kg/day. For the same molecule, the LEL (rat [9]; [28]) was 50 mg/kg/day and the LOAEL (rat [9]; [28]) was 50 mg/kg/day.

In the case of `Clc1ccc(C(c2ccc(Cl)cc2)C(Cl)Cl)cc1` [p,p'-DDD], the LEL (mouse [10]) is reported as 61.6 mg/kg/day, the LOAEL (mouse [10]) is reported as > 123 mg/kg/day and the NEL (mouse [10]) is reported as < 61.6 mg/kg/day. For the same molecule, the NOAEL (mouse [10]) was ≥ 123 mg/kg/day, the LEL (rat [11]) was 42.5 mg/kg/day and the LOAEL (rat [11]) was > 85 mg/kg/day. For the same molecule, the NEL (rat [11]) was < 42.5 mg/kg/day and the NOAEL (rat [11]) was ≥ 85 mg/kg/day.
